Results published in ChEMBL document CHEMBL2311259, “Synthesis of novel chromene derivatives of expected antitumor activity” (Eur J Med Chem, 2013).

tested on: MCF7; experiment: Ratio of colchicine IC50 to compound IC50 for human MCF7 cells by SRB assay; type: functional

**Q.** For `COc1ccc2c(c1)Oc1ncn(C)c(=N)c1C2c1ccc(Cl)cc1` (racemic), which “Ratio IC50” value is on record?
**A.** 2

**Q.** Which “Ratio IC50” value does the source give for `COc1ccc(-c2nc3c4c(ncn3n2)Oc2cc(OC)ccc2C4c2ccc(Cl)cc2)cc1` (racemic) here?
**A.** 1.5

**Q.** For `COc1ccc2c(c1)Oc1ncn(N)c(=N)c1C2c1ccc(Cl)cc1` (mixture of isomers), which “Ratio IC50” value is on record?
**A.** 1.5

**Q.** Which “Ratio IC50” value does the source give for `CCOc1ccc2c(c1)Oc1ncn3nc(-c4ccc(OC)cc4)nc3c1C2c1ccc(Cl)cc1` (racemic) here?
**A.** 1.5

**Q.** `CCOC(=O)c1nc2c3c(ncn2n1)Oc1cc(OCC)ccc1C3c1ccc(Cl)cc1` (racemic) was tested. Which “Ratio IC50” value did it give?
**A.** 2
